We go through one molecule from article PMC5218480 (PLoS ONE, 2017).

The assay relates to MV-4-11 cells. The assay can be described thus: Gene expression microarray analysis (Affymetrix PrimeView) and GSEA. Type of assay: cell-based, human. Details: RFU PODN (11730768_x_at) / Fold change /veh PODN (11730768_x_at) / RFU LINC00158 (11744669_a_at) / Fold change /veh LINC00158 (11744669_a_at) / RFU DUSP10 (11751237_a_at) / Fold change /veh DUSP10 (11751237_a_at) / RFU ID3 (11757404_x_at) / Fold change /veh ID3 (11757404_x_at) / RFU PLEKHG5 (11737974_s_at) / Fold change /veh PLEKHG5 (11737974_s_at) / RFU LRRC4B (11730491_at) / Fold change /veh LRRC4B (11730491_at) / RFU GIMAP4 (11747438_a_at) / Fold change /veh GIMAP4 (11747438_a_at) / RFU KRT8 (11758183_x_at) / Fold change /veh KRT8 (11758183_x_at) / RFU CNN1 (11734310_a_at) / Fold change /veh CNN1 (11734310_a_at) / RFU VPS37D (11726825_at) / Fold change /veh VPS37D (11726825_at) / RFU C10orf10 (11716522_x_at) / Fold change /veh C10orf10 (11716522_x_at) / RFU KIR2DL2 /// KIR2DL4 /// KIR2DL5A /// KIR2DL5B /// KIR2DS1 /// KIR2DS2 /// KIR2DS3 /// KIR2DS4 /// KIR3DL3 /// KIR3DL3 /// KIR3DS1 (11738374_at) / Fold change /veh KIR2DL2 /// KIR2DL4 /// KIR2DL5A /// KIR2DL5B /// KIR2DS1 /// KIR2DS2 /// KIR2DS3 /// KIR2DS4 /// KIR3DL3 /// KIR3DL3 /// KIR3DS1 (11738374_at) / RFU C1QL1 (11718748_at) / Fold change /veh C1QL1 (11718748_at) / RFU TMPRSS4 (11747572_a_at) / Fold change /veh TMPRSS4 (11747572_a_at) / RFU HAMP (11756126_x_at) / Fold change /veh HAMP (11756126_x_at) / RFU RNFT2 (11725882_a_at) / Fold change /veh RNFT2 (11725882_a_at) / RFU NR4A2 (11747474_a_at) / Fold change /veh NR4A2 (11747474_a_at) / RFU ABCC12 (11746883_a_at) / Fold change /veh ABCC12 (11746883_a_at) / RFU TMEM136 (11760407_x_at) / Fold change /veh TMEM136 (11760407_x_at) / RFU CLDN22 /// WWC2 (11732394_at) / Fold change /veh CLDN22 /// WWC2 (11732394_at) / RFU HLA-DPB1 (11760878_x_at) / Fold change /veh HLA-DPB1 (11760878_x_at) / RFU SPINT1 (11716480_a_at) / Fold change /veh SPINT1 (11716480_a_at) / RFU GAP43 (11754022_s_at) / Fold change /veh GAP43 (11754022_s_at) / RFU A4GNT (11735810_at) / Fold change /veh A4GNT (11735810_at) / RFU PRB3 (11715151_x_at) / Fold change /veh PRB3 (11715151_x_at) / RFU TUBB4B (11761932_at) / Fold change /veh TUBB4B (11761932_at) / RFU CAPN14 (11732068_a_at) / Fold change /veh CAPN14 (11732068_a_at) / RFU TMCC2 (11721928_a_at) / Fold change /veh TMCC2 (11721928_a_at) / RFU IRGQ (11745062_a_at) / Fold change /veh IRGQ (11745062_a_at) / RFU FAM174B (11720279_a_at) / Fold change /veh FAM174B (11720279_a_at) / RFU TMPRSS4 (11748680_a_at) / Fold change /veh TMPRSS4 (11748680_a_at) / RFU FAM212B (11763350_a_at) / Fold change /veh FAM212B (11763350_a_at) / RFU PLEKHG5 (11743358_a_at) / Fold change /veh PLEKHG5 (11743358_a_at) / RFU ZSCAN30 (11745921_a_at) / Fold change /veh ZSCAN30 (11745921_a_at) / RFU CMKLR1 (11741424_a_at) / Fold change /veh CMKLR1 (11741424_a_at) / RFU LOC101060620 /// MAPK8IP1 (11723275_at) / Fold change /veh LOC101060620 /// MAPK8IP1 (11723275_at) / RFU SPTSSB (11747773_x_at) / Fold change /veh SPTSSB (11747773_x_at) / RFU PRSS12 (11739890_at) / Fold change /veh PRSS12 (11739890_at) / RFU BIN1 (11741810_x_at) / Fold change /veh BIN1 (11741810_x_at) / RFU WNT11 (11732464_a_at) / Fold change /veh WNT11 (11732464_a_at) / RFU C10orf10 (11716521_a_at) / Fold change /veh C10orf10 (11716521_a_at) / RFU C5orf56 (11738089_at) / Fold change /veh C5orf56 (11738089_at) / RFU CYB561 (11721691_x_at) / Fold change /veh CYB561 (11721691_x_at) / RFU ANKRD19P (11752326_a_at) / Fold change /veh ANKRD19P (11752326_a_at) / RFU OR2T12 /// OR2T33 /// OR2T8 (11738714_s_at) / Fold change /veh OR2T12 /// OR2T33 /// OR2T8 (11738714_s_at) / RFU VCAN (11748164_a_at) / Fold change /veh VCAN (11748164_a_at) / RFU JSRP1 (11732532_at) / Fold change /veh JSRP1 (11732532_at) / RFU KRTAP10-11 (11738290_x_at) / Fold change /veh KRTAP10-11 (11738290_x_at) / RFU MYO3A (11730013_a_at) / Fold change /veh MYO3A (11730013_a_at) / RFU EBF3 (11725865_a_at) / Fold change /veh EBF3 (11725865_a_at) / RFU CAMK2N1 (11719241_x_at) / Fold change /veh CAMK2N1 (11719241_x_at) / RFU C5orf56 (11738088_a_at) / Fold change /veh C5orf56 (11738088_a_at) / RFU OLFML3 (11715873_a_at) / Fold change /veh OLFML3 (11715873_a_at) / RFU LOC100653217 /// NTM (11731650_a_at) / Fold change /veh LOC100653217 /// NTM (11731650_a_at) / RFU MAPK11 (11762145_a_at) / Fold change /veh MAPK11 (11762145_a_at) / RFU FIZ1 (11724087_x_at) / Fold change /veh FIZ1 (11724087_x_at) / RFU OASL (11726364_x_at) / Fold change /veh OASL (11726364_x_at) / RFU SOX15 (11748057_x_at) / Fold change /veh SOX15 (11748057_x_at) / RFU CD79A (11719716_a_at) / Fold change /veh CD79A (11719716_a_at) / RFU HIST1H1D (11736915_at) / Fold change /veh HIST1H1D (11736915_at) / RFU CASKIN2 (11723855_a_at) / Fold change /veh CASKIN2 (11723855_a_at) / RFU LOC730098 (11760151_x_at) / Fold change /veh LOC730098 (11760151_x_at) / RFU OR4N2 (11742367_at) / Fold change /veh OR4N2 (11742367_at) / RFU PRRT2 (11749266_a_at) / Fold change /veh PRRT2 (11749266_a_at) / RFU SNX32 (11753110_a_at) / Fold change /veh SNX32 (11753110_a_at) / RFU CDHR5 (11726645_a_at) / Fold change /veh CDHR5 (11726645_a_at) / RFU RCAN1 (11760418_a_at) / Fold change /veh RCAN1 (11760418_a_at) / RFU FAM167A (11723789_a_at) / Fold change /veh FAM167A (11723789_a_at) / RFU FAM26E (11764081_at) / Fold change /veh FAM26E (11764081_at) / RFU ISYNA1 (11749810_s_at) / Fold change /veh ISYNA1 (11749810_s_at) / RFU ACY1 (11761880_at) / Fold change /veh ACY1 (11761880_at) / RFU 11764098_at / Fold change /veh 11764098_at / RFU SAMD14 (11745864_x_at) / Fold change /veh SAMD14 (11745864_x_at) / RFU NPB (11741838_a_at) / Fold change /veh NPB (11741838_a_at) / RFU TMPRSS6 (11731388_a_at) / Fold change /veh TMPRSS6 (11731388_a_at) / RFU KRTAP10-2 (11738614_at) / Fold change /veh KRTAP10-2 (11738614_at) / RFU ARHGAP8 /// PRR5-ARHGAP8 (11727945_x_at) / Fold change /veh ARHGAP8 /// PRR5-ARHGAP8 (11727945_x_at) / RFU KRTAP5-7 /// NADSYN1 (11734609_at) / Fold change /veh KRTAP5-7 /// NADSYN1 (11734609_at) / RFU RASL12 (11751679_a_at) / Fold change /veh RASL12 (11751679_a_at) / RFU CDKN2B (11736163_a_at) / Fold change /veh CDKN2B (11736163_a_at) / RFU PRF1 (11729649_at) / Fold change /veh PRF1 (11729649_at) / RFU, ZNF638 /// ZNF638-IT1 / Fold change vs veh, ZNF638 /// ZNF638-IT1 / RFU, PANK3 / Fold change vs veh, PANK3 / RFU, SH3YL1 / Fold change vs veh, SH3YL1 / RFU, ZEB2 / Fold change vs veh, ZEB2 / RFU, NRIP1 / Fold change vs veh, NRIP1 / RFU, PTTG1IP / Fold change vs veh, PTTG1IP / RFU, CAPN2 / Fold change vs veh, CAPN2 / RFU, MED14 / Fold change vs veh, MED14 / RFU, SNORA58 / Fold change vs veh, SNORA58 / RFU, C1orf63 / Fold change vs veh, C1orf63 / RFU, LRRFIP1 / Fold change vs veh, LRRFIP1 / RFU, NDUFAF7 / Fold change vs veh, NDUFAF7 / RFU, SLC12A2 / Fold change vs veh, SLC12A2 / RFU, IBTK / Fold change vs veh, IBTK / RFU, ESF1 / Fold change vs veh, ESF1 / Fold change vs veh, TMEM50B / RFU, TAOK1 / Fold change vs veh, TAOK1 / RFU, ACBD3 / Fold change vs veh, ACBD3 / RFU, TMA16 / Fold change vs veh, TMA16 / RFU, RWDD3 / Fold change vs veh, RWDD3 / RFU, BCAT1 / Fold change vs veh, BCAT1 / RFU, EDEM3 / Fold change vs veh, EDEM3 / RFU, TMEM33 / Fold change vs veh, TMEM33 / RFU, WDR75 / Fold change vs veh, WDR75 / RFU, AHCTF1 / Fold change vs veh, AHCTF1 / RFU, TFRC / Fold change vs veh, TFRC / RFU, ZDHHC17 / Fold change vs veh, ZDHHC17 / RFU, NOM1 / Fold change vs veh, NOM1 / RFU, ARL8B / Fold change vs veh, ARL8B / RFU, ZBTB11 / Fold change vs veh, ZBTB11 / RFU, TAMM41 / Fold change vs veh, TAMM41 / RFU, KIAA1704 /// LOC100996395 / Fold change vs veh, KIAA1704 /// LOC100996395 / RFU, ING1 / Fold change vs veh, ING1 / RFU, TRMT61B / Fold change vs veh, TRMT61B / RFU, FUBP3 / Fold change vs veh, FUBP3 / RFU, TP53 / Fold change vs veh, TP53 / RFU, TNKS2 / Fold change vs veh, TNKS2 / RFU, ZFP14 / Fold change vs veh, ZFP14 / RFU, ACTR2 / Fold change vs veh, ACTR2 / RFU, PPP3R1 / Fold change vs veh, PPP3R1 / RFU, PIK3R1 / Fold change vs veh, PIK3R1 / RFU, HNRNPA1 / Fold change vs veh, HNRNPA1 / RFU, RNF170 / Fold change vs veh, RNF170 / RFU, ZNF28 / Fold change vs veh, ZNF28 / RFU, RNGTT / Fold change vs veh, RNGTT / RFU, OGT / Fold change vs veh, OGT / RFU, BRD1 / Fold change vs veh, BRD1 / RFU, MARS / Fold change vs veh, MARS / RFU, ZNF655 / Fold change vs veh, ZNF655 / RFU, FAHD1 / Fold change vs veh, FAHD1 / RFU, BDP1 / Fold change vs veh, BDP1 / RFU, LRRCC1 / Fold change vs veh, LRRCC1 / RFU, ARID1A / Fold change vs veh, ARID1A / RFU, ZNF146 / Fold change vs veh, ZNF146 / RFU, ZNF330 / Fold change vs veh, ZNF330 / RFU, GPN3 / Fold change vs veh, GPN3 / RFU, C9orf123 / Fold change vs veh, C9orf123 / RFU, N4BP2L2 / Fold change vs veh, N4BP2L2 / RFU, ARFIP1 / Fold change vs veh, ARFIP1 / RFU, FAM179B / Fold change vs veh, FAM179B / RFU, BCL10 / Fold change vs veh, BCL10 / RFU, UHRF1BP1L / Fold change vs veh, UHRF1BP1L / RFU, BET1 / Fold change vs veh, BET1 / RFU, CNOT2 / Fold change vs veh, CNOT2 / RFU, ZNF268 / Fold change vs veh, ZNF268 / Fold change vs veh, ZNF507 / RFU, DGCR2 / Fold change vs veh, DGCR2 / RFU, WDSUB1 / Fold change vs veh, WDSUB1 / Fold change vs veh, HSP90B1 /// MIR3652 / RFU, ADSS / Fold change vs veh, ADSS / RFU, GK / Fold change vs veh, GK / RFU, ZNF148 / Fold change vs veh, ZNF148 / RFU, TAF9 / Fold change vs veh, TAF9 / RFU, SLC1A5 / Fold change vs veh, SLC1A5 / RFU, SLMO2 / Fold change vs veh, SLMO2 / RFU, ABCC4 / Fold change vs veh, ABCC4 / RFU, LOC101060439 /// RAP1B / Fold change vs veh, LOC101060439 /// RAP1B / RFU, RFX7 / Fold change vs veh, RFX7 / RFU, GTPBP10 / Fold change vs veh, GTPBP10 / RFU, CNEP1R1 / Fold change vs veh, CNEP1R1 / RFU, BIVM-ERCC5 /// ERCC5 / Fold change vs veh, BIVM-ERCC5 /// ERCC5 / RFU, ILF3 / Fold change vs veh, ILF3 / RFU 11762660_at / Fold change /veh 11762660_at / RFU VCAN (11757783_s_at) / Fold change /veh VCAN (11757783_s_at) / RFU DDX43 (11728927_at) / Fold change /veh DDX43 (11728927_at) / RFU KRT8 (11758188_x_at) / Fold change /veh KRT8 (11758188_x_at) / RFU NKD1 (11759106_at) / Fold change /veh NKD1 (11759106_at) / RFU SRD5A1 (11742802_a_at) / Fold change /veh SRD5A1 (11742802_a_at) / RFU TPSAB1 /// TPSB2 (11721975_s_at) / Fold change /veh TPSAB1 /// TPSB2 (11721975_s_at) / RFU GSTM3 (11746129_a_at) / Fold change /veh GSTM3 (11746129_a_at) / RFU IL23R (11737362_x_at) / Fold change /veh IL23R (11737362_x_at) / RFU TMEM51 (11727254_a_at) / Fold change /veh TMEM51 (11727254_a_at) / RFU PIWIL2 (11732686_x_at) / Fold change /veh PIWIL2 (11732686_x_at) / RFU ORM1 (11744905_x_at) / Fold change /veh ORM1 (11744905_x_at) / RFU CCDC152 (11743942_at) / Fold change /veh CCDC152 (11743942_at) / RFU ECM1 (11717891_a_at) / Fold change /veh ECM1 (11717891_a_at) / RFU IL23R (11748794_a_at) / Fold change /veh IL23R (11748794_a_at) / RFU TNFAIP8L3 (11732012_x_at) / Fold change /veh TNFAIP8L3 (11732012_x_at) / RFU MBOAT4 (11741988_at) / Fold change /veh MBOAT4 (11741988_at) / RFU 11764193_at / Fold change /veh 11764193_at / RFU TMEM53 (11763286_at) / Fold change /veh TMEM53 (11763286_at) / RFU MAGEB2 (11727129_at) / Fold change /veh MAGEB2 (11727129_at) / RFU TMEM200A (11744735_a_at) / Fold change /veh TMEM200A (11744735_a_at) / RFU CCDC152 (11751479_a_at) / Fold change /veh CCDC152 (11751479_a_at) / RFU FAM211A (11726209_a_at) / Fold change /veh FAM211A (11726209_a_at) / RFU RGS16 (11746705_a_at) / Fold change /veh RGS16 (11746705_a_at) / RFU VCAN (11755009_s_at) / Fold change /veh VCAN (11755009_s_at) / RFU RHOB (11743442_s_at) / Fold change /veh RHOB (11743442_s_at) / RFU RGS16 (11720943_a_at) / Fold change /veh RGS16 (11720943_a_at) / RFU RGS16 (11720944_at) / Fold change /veh RGS16 (11720944_at) / RFU, VPS4B / Fold change vs veh, VPS4B / RFU, CREB1 / Fold change vs veh, CREB1 / RFU, DNAJC13 / Fold change vs veh, DNAJC13 / RFU, GNAQ / Fold change vs veh, GNAQ / RFU, CDK5R1 / Fold change vs veh, CDK5R1 / RFU, ZRANB3 / Fold change vs veh, ZRANB3 / RFU, CUL4A / Fold change vs veh, CUL4A / RFU, CCNY / Fold change vs veh, CCNY / RFU, UFL1 / Fold change vs veh, UFL1 / RFU, COG3 / Fold change vs veh, COG3 / RFU, DIAPH2 / Fold change vs veh, DIAPH2 / RFU, SKA2 / Fold change vs veh, SKA2 / RFU, AFF3 / Fold change vs veh, AFF3 / RFU, LMF1 / Fold change vs veh, LMF1 / RFU, IPO11 / Fold change vs veh, IPO11 / RFU, DFFB / Fold change vs veh, DFFB / RFU, FOXP1 / Fold change vs veh, FOXP1 / RFU, CARD8 / Fold change vs veh, CARD8 / RFU, STRN3 / Fold change vs veh, STRN3 / RFU, ADK / Fold change vs veh, ADK / RFU, RASSF2 / Fold change vs veh, RASSF2 / RFU, WIPF1 / Fold change vs veh, WIPF1 / RFU, LARP1B / Fold change vs veh, LARP1B / RFU, RASA1 / Fold change vs veh, RASA1 / RFU, RB1 / Fold change vs veh, RB1 / RFU, PPFIA1 / Fold change vs veh, PPFIA1 / RFU, MAT2A / Fold change vs veh, MAT2A / RFU, CCT5 / Fold change vs veh, CCT5 / RFU, WDR92 / Fold change vs veh, WDR92 / RFU, CUX1 / Fold change vs veh, CUX1 / RFU, TTC7A / Fold change vs veh, TTC7A / RFU, TMEM135 / Fold change vs veh, TMEM135 / RFU, DEPTOR / Fold change vs veh, DEPTOR / RFU, CPM / Fold change vs veh, CPM / RFU, DNAJB6 / Fold change vs veh, DNAJB6 / RFU, CACNA2D3 / Fold change vs veh, CACNA2D3 / RFU, DTX4 / Fold change vs veh, DTX4 / RFU, TFCP2 / Fold change vs veh, TFCP2 / RFU, GMCL1 /// GMCL1P1 / Fold change vs veh, GMCL1 /// GMCL1P1 / RFU, AEBP2 / Fold change vs veh, AEBP2 / RFU, SNHG1 /// SNORD22 /// SNORD25 /// SNORD26 /// SNORD27 /// SNORD28 /// SNORD29 /// SNORD31 / Fold change vs veh, SNHG1 /// SNORD22 /// SNORD25 /// SNORD26 /// SNORD27 /// SNORD28 /// SNORD29 /// SNORD31 / Fold change (Aza/veh), C12orf56 (ProbeSet 11735607_a_at) / Fold change (ACY-1035/veh), C12orf56 (ProbeSet 11735607_a_at) / Fold change (Aza/veh), FGFR1OP (ProbeSet 11751329_s_at) / Fold change (ACY-1035/veh), FGFR1OP (ProbeSet 11751329_s_at) / Fold change (Aza/veh), VPS36 (ProbeSet 11739960_a_at) / Fold change (ACY-1035/veh), VPS36 (ProbeSet 11739960_a_at) / RFU SYPL1 (11715823_x_at) / Fold change /veh SYPL1 (11715823_x_at) / RFU IGFBP7 (11715501_s_at) / Fold change /veh IGFBP7 (11715501_s_at) / RFU REEP3 (11722064_at) / Fold change /veh REEP3 (11722064_at) / RFU IGLL1 (11728026_x_at) / Fold change /veh IGLL1 (11728026_x_at): dose or concentration left out as unconfirmed. Particulars: ProbeSet 11762504_a_at; LIST D.

For the molecule `Nc1ccc(-c2cccs2)cc1NC(=O)c1ccc2c(c1)cc(C1CC1)n2CCN1CCOCC1` [ACY-1035], the “RFU, ZRANB3” value is listed as 82.93 RFU.
